Earlier results in patent US7223553B2, “Immunoassays for everolimus” (priority 2004, dated 2007).
Where two headings read alike, the source gives them in different places.

Experiments:
[1] = heart transplant patients, first year post-transplant
[2] = kidney transplantation; consistent with efficacy while minimizing adverse effects

- Everolimus trough levels ([1]; 1.5 mg/day): 5.2 ± 3.8 ng/mL
- Everolimus trough levels ([1]; 3 mg/day): 9.4 ± 6.3 ng/mL
Substance: 40-O-(2-hydroxyethyl)-rapamycin [Everolimus]
- Therapeutic concentration [2]: 3 to 15 ng/mL
